One data set in a line: physchem. Particulars: PBS, pH 7.
The subject of data set [1] is P-gp. Put plainly: in vitro. Particulars: pig, LLC-PK1.
In data set [2] the test system is P-gp. The experiment in a line: in vitro. Conditions: pig, LLC-PK1. The source holds these as a separate data set.

`NC(=O)c1cc(-c2ccc(F)cc2)c2ccc(Cc3ccncc3)cc2n1` showed a logD in “physchem” of 2.7.

On to `NC(=O)c1cc(-c2ccc(F)cc2)c2ccc(CCc3ccncc3)cc2n1`, for which the Papp in the data set on P-gp [1] stood at 21 ×10⁻⁶ cm/s; in the data set with P-gp [2], 24 ×10⁻⁶ cm/s. Besides, the logD in “physchem” amounted to 2.88.

Molecule `NC(=O)c1cc(-c2ccc(F)cc2)c2ccc(CN3C(=O)CCC3=O)cc2n1` registered a logD in the data set “physchem” of 2.24.

For the molecule `NC(=O)c1cc(-c2ccc(F)cc2)c2ccc(CCc3cccnc3)cc2n1`, the Papp came to 21 ×10⁻⁶ cm/s in the data set on P-gp [1] and 22 ×10⁻⁶ cm/s with P-gp [2]. The logD in “physchem” stood at 2.85.

For `NC(=O)c1cc(-c2ccc(F)cc2)c2ccc(CCc3cncnc3)cc2n1`, the values for the Papp with P-gp [1] and with P-gp [2] were 30 ×10⁻⁶ cm/s and 28 ×10⁻⁶ cm/s, respectively. Further, the logD in the data set “physchem” is 2.31.
